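Protocol summary: plate cells (96-well), add compound at 5 concentrations, incubate 48 h, interpolate endpoints linearly. TGI: concentration producing complete growth inhibition.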
Legend:
Assay in all cases: NCI anticancer screen, dose series, 48 h
[1] = test system: OVCAR-3 ovarian
[2] = test system: M14 melanoma
[3] = test system: UACC-257 melanoma
[4] = test system: HCT-15 colon
[5] = test system: EKVX NSCLC
[6] = test system: UACC-62 melanoma
[7] = test system: SF-539 CNS
[8] = test system: XF 498 CNS
[9] = test system: A549 NSCLC
[10] = test system: OVCAR-5 ovarian
[11] = test system: MALME-3M melanoma
[12] = test system: SF-295 CNS
[13] = test system: SK-OV-3 ovarian
[14] = test system: HOP-92 NSCLC
[15] = test system: RXF-631 renal
[16] = test system: MOLT-4 leukemia
[17] = test system: SK-MEL-28 melanoma
[18] = test system: HL-60(TB) leukemia
[19] = test system: SW-620 colon
[20] = test system: OVCAR-8 ovarian
[21] = test system: HCT-116 colon
[22] = test system: HCC-2998 colon
[23] = test system: IGROV1 ovarian
[24] = test system: TK-10 renal
[25] = test system: U251 CNS
[26] = test system: K-562 leukemia
[27] = test system: RXF 393 renal
[28] = test system: CCRF-CEM leukemia
[29] = test system: DMS 273 small cell lung
[30] = test system: RPMI-8226 leukemia
[31] = test system: KM12 colon
[32] = test system: 786-0 renal
[33] = test system: NCI-H226 lung
[34] = test system: SNB-19 CNS
[35] = test system: SNB-75 CNS
[36] = test system: SK-MEL-5 melanoma
[37] = test system: NCI-H460 lung
[38] = test system: HT29 colon
[39] = test system: ACHN renal
[40] = test system: LXFL 529 NSCLC
[41] = test system: SK-MEL-2 melanoma
[42] = test system: SNB-78 CNS
[43] = test system: M19-MEL melanoma
[44] = test system: NCI-H23 lung
[45] = test system: OVCAR-4 ovarian
[46] = test system: NCI-H522 lung
[47] = test system: UO-31 renal
[48] = test system: DLD-1 colon
[49] = test system: LOX IMVI melanoma
[50] = test system: KM20L2 colon
[51] = test system: HOP-62 NSCLC
[52] = test system: SN12C renal
[53] = test system: COLO 205 colon
[54] = test system: SF-268 CNS
[55] = test system: DMS 114 small cell lung
[56] = test system: CAKI-1 renal
[57] = test system: A498 renal
[58] = test system: SR leukemia
[59] = test system: HOP-18 NSCLC

O=C1Nc2cc([N+](=O)[O-])ccc2NC1/C(=N\Nc1ccccc1)C(O)c1cccc([N+](=O)[O-])c1 (stereo unspecified)
TGI [1]: > 100 µM
TGI [2]: > 100 µM
TGI [3]: > 100 µM
TGI [4]: 44.7 µM
TGI [5]: > 100 µM
TGI [6]: > 100 µM
TGI [7]: > 100 µM
TGI [8]: > 100 µM
TGI [9]: > 100 µM
TGI [10]: > 100 µM
TGI [11]: > 100 µM
TGI [12]: > 100 µM
TGI [13]: > 100 µM
TGI [14]: > 100 µM
TGI [15]: > 100 µM
TGI [16]: > 100 µM
TGI [17]: > 100 µM
TGI [18]: > 100 µM
TGI [19]: > 100 µM
TGI [20]: > 100 µM
TGI [21]: > 100 µM
TGI [22]: > 100 µM
TGI [23]: > 100 µM
TGI [24]: > 100 µM
TGI [25]: > 100 µM
TGI [26]: > 100 µM
TGI [27]: > 100 µM
TGI [28]: > 100 µM
TGI [29]: > 100 µM
TGI [30]: > 100 µM
TGI [31]: > 100 µM
TGI [32]: > 100 µM
TGI [33]: > 100 µM
TGI [34]: > 100 µM
TGI [35]: > 100 µM
TGI [36]: 45.1 µM
TGI [37]: > 100 µM
TGI [38]: > 100 µM
TGI [39]: > 100 µM
TGI [40]: > 100 µM
TGI [41]: > 100 µM
TGI [42]: > 100 µM
TGI [43]: > 100 µM
TGI [44]: > 100 µM
TGI [45]: > 100 µM
TGI [46]: > 100 µM
TGI [47]: > 100 µM
TGI [48]: > 100 µM
TGI [49]: > 100 µM
TGI [50]: > 100 µM
TGI [51]: > 100 µM
TGI [52]: > 100 µM
TGI [53]: > 100 µM
TGI [54]: > 100 µM
TGI [55]: > 100 µM

COc1ccc(/C(=N/Nc2ccccc2)C(c2ccc(OC)cc2)C2OC(=O)c3ccccc32)cc1 (stereo unspecified)
TGI [56]: > 100 µM
TGI [2]: > 100 µM
TGI [57]: > 100 µM
TGI [3]: > 100 µM
TGI [4]: > 100 µM
TGI [5]: > 100 µM
TGI [6]: > 100 µM
TGI [7]: > 100 µM
TGI [8]: > 100 µM
TGI [9]: > 100 µM
TGI [11]: > 100 µM
TGI [12]: > 100 µM
TGI [15]: > 100 µM
TGI [16]: > 100 µM
TGI [20]: > 100 µM
TGI [21]: > 100 µM
TGI [22]: > 100 µM
TGI [23]: > 100 µM
TGI [25]: > 100 µM
TGI [26]: > 100 µM
TGI [28]: > 100 µM
TGI [29]: > 100 µM
TGI [32]: > 100 µM
TGI [33]: 65.8 µM
TGI [34]: > 100 µM
TGI [35]: > 100 µM
TGI [36]: > 100 µM
TGI [37]: > 100 µM
TGI [38]: > 100 µM
TGI [39]: > 100 µM
TGI [41]: > 100 µM
TGI [45]: > 100 µM
TGI [46]: > 100 µM
TGI [47]: > 100 µM
TGI [50]: > 100 µM
TGI [51]: > 100 µM
TGI [52]: > 100 µM
TGI [53]: > 100 µM
TGI [54]: 91.8 µM
TGI [55]: > 100 µM

O=C1C(=O)N(c2ccc(Cl)cc2Cl)C(=O)C(=O)C1c1nc2ccccc2o1
TGI [1]: > 100 µM
TGI [56]: > 100 µM
TGI [2]: > 100 µM
TGI [57]: > 100 µM
TGI [3]: > 100 µM
TGI [4]: > 100 µM
TGI [5]: > 100 µM
TGI [6]: > 100 µM
TGI [7]: > 100 µM
TGI [8]: > 100 µM
TGI [9]: > 100 µM
TGI [10]: > 100 µM
TGI [11]: > 100 µM
TGI [12]: > 100 µM
TGI [13]: > 100 µM
TGI [14]: > 100 µM
TGI [15]: > 100 µM
TGI [16]: > 100 µM
TGI [17]: > 100 µM
TGI [18]: > 100 µM
TGI [19]: > 100 µM
TGI [20]: > 100 µM
TGI [21]: > 100 µM
TGI [22]: > 100 µM
TGI [23]: > 100 µM
TGI [24]: > 100 µM
TGI [25]: > 100 µM
TGI [58]: > 100 µM
TGI [26]: > 100 µM
TGI [28]: > 100 µM
TGI [29]: > 100 µM
TGI [30]: > 100 µM
TGI [31]: > 100 µM
TGI [32]: > 100 µM
TGI [33]: > 100 µM
TGI [34]: > 100 µM
TGI [35]: > 100 µM
TGI [36]: > 100 µM
TGI [37]: > 100 µM
TGI [38]: > 100 µM
TGI [39]: > 100 µM
TGI [40]: > 100 µM
TGI [41]: > 100 µM
TGI [42]: > 100 µM
TGI [43]: > 100 µM
TGI [44]: > 100 µM
TGI [45]: > 100 µM
TGI [46]: > 100 µM
TGI [47]: > 100 µM
TGI [48]: > 100 µM
TGI [50]: > 100 µM
TGI [51]: > 100 µM
TGI [59]: > 100 µM
TGI [52]: > 100 µM
TGI [53]: > 100 µM
TGI [54]: > 100 µM

Reference: PubChem BioAssay (NCI)
